{"source": "paper PMC4738272", "about": "(Scientific Reports, 2016)", "key": {"HepG2/C3A [1]": {"test_system": "HepG2/C3A", "assay": "Urea quantification, liver fraction of 4-organ system", "assay_type": "cell-based, human", "conditions": "4-organ co-culture under flow, 48 h drug treatment, vs control, DOX 5 μM, ATR 100 μM, APAP 5 mM, AMAP 5 mM"}, "neurons [2]": {"test_system": "neurons", "assay": "Neuronal viability by morphological analysis and cell count in 4-organ system", "conditions": "4-organ co-culture under flow, serum-free medium, 48 h drug treatment, day 7, vs control, DOX 5 μM, ATR 100 μM, VPA 2 mM, APAP 5 mM, AMAP 5 mM", "quoted_text": "(§1) The four organ in vitro systems were assembled, on day 0, by placing the corresponding surfaces cell side up in a specific chamber of the housing (liver coverslip into chamber 1, cardiac coverslips and cantilevers into chambers 2 and 4, muscle coverslips into chamber 5, and neuron coverslips into chamber 3 and they were then topped with the serum-free co-culture medium (1X Neurobasal Medium, 1X B27, 1X AB/AM, 1X Glutamax (all from Life Technologies)) before locking the system. Right after assembling, the medium was completely replaced with 4 mL of the co-culture defined serum-free medium and the systems placed on a rocking platform inside an incubator. Platforms were checked every day by inspecting for expected cell morphology inside the system and by replacing medium (1.2 mL total volume) from the two reservoirs (30% of the total volume was replaced) with fresh medium. Drug incubation was initiated on day 5 of the co-culture by addition of the drug through the reservoir closer to the liver chamber (no. 1), allowing a first contact of the drug with the liver. 20 μL of the drug stock solution (or vehicle) to achieve a working concentration in 4 mL of total volume in the platform was utilized. On day 6, after 24 hours of drug incubation, 6 μL of the drug stock solution (or vehicle) was added to the fresh medium exchange volume (1.2 mL). After 48 hour of drug incubation, on day 7, systems were disassembled to test organ functionality that same day. For mono-culture conditions, surfaces remained in a 12-well plated with 1 mL of the co-culture defined serum-free medium maintained by daily replacement of half volume.\n(§2) Seven days after the initiation of the co-culture, viability of each organ chamber, except for neurons, was evaluated through an MTT assay. […] Cell viability was measured at 570 nm in a Synergy HT plate reader and KC4 software. The results were expressed as the percentage of cell survival relative to the control (untreated or incubated with vehicle). The neuronal fraction viability was evaluated through morphological analysis throughout the co-culture experiment as the final coverslips were used for patch-clamp electrophysiology. Phase images (10X) where obtained every day of the co-culture. Neuronal viability was evaluated by cell morphology integrity and by cell count from day 1 to day 14."}, "neuron": {"test_system": "neuron", "parameters": "method as in PMID 17298386", "conditions": "1uM DOX for 24 hours; read-out: Neuron viability drop; cited from earlier work"}, "HepG2/C3A [3]": {"test_system": "HepG2/C3A", "assay": "Human Serum Albumin quantification (ELISA), liver fraction of 4-organ system", "assay_type": "cell-based", "conditions": "4-organ co-culture under flow, 48 h drug treatment, vs control, DOX 5 μM, ATR 100 μM, VPA 2 mM, APAP 5 mM, AMAP 5 mM", "description": "Human Serum Albumin (HSA) production from the liver fraction was tracked throughout the co-culture, by measuring the HSA concentration in the supernatant of the culture as it represents liver protein anabolism. Samples were collected from the exchanged medium (1.2 mL) and stored at −20 °C until analysis. One freeze-thaw cycle occurred before samples were analyzed following manufacturers’ instructions provided in the ELISA Starter Accessory Kit (Bethyl Laboratories Inc, Cat #: E101). Samples were diluted as necessary in sample conjugate/diluent buffer to ensure readings measured within the range of the standard curve. The standard curve was prepared by serial dilutions of human reference serum in sample conjugate/diluent buffer (0–1600 ng/ml).\nFinal HSA concentrations were calculated in an excel file by first removing the average OD reading measured for blanks from average sample and standard OD readings. Concentrations of standard dilutions were plotted against average OD values measured in XY scatter plots. A standard curve was created by adding an order of 2 polynomial trendline to XY scatter plots and selecting the option to display the equation of the trendline, as well as the R^2 value, on each scatter plot (for ease of analysis HSA sigmoidal curves were split into 3 standard curves with HSA concentration ranges of 0–200 ng/ml, 200–800 ng/ml and […]). Quadratic equations were rearranged to make X (sample HSA concentration) the unknown variant. Y values (OD values) and a/b/c constants generated from trendline equations were inputted into rearranged quadratic equations per assay. HSA concentrations calculated were corrected accordingly for any differences in culture final volumes, sample dilutions during assays and cells number."}, "Human Skeletal Myofibers [4]": {"test_system": "Human Skeletal Myofibers", "assay": "MTT viability of skeletal muscle module in 4-organ system", "conditions": "4-organ co-culture under flow, serum-free medium, 48 h drug treatment, day 7, vs control; DOX 5 μM, ATR 100 μM, VPA 2 mM, APAP 5 mM, AMAP 5 mM", "quoted_text": "as §1, §2"}, "Human Skeletal Myofibers [5]": {"test_system": "Human Skeletal Myofibers", "assay": "Myotube stimulated contraction (binary: contracting or not)", "assay_type": "cell-based", "conditions": "4-organ co-culture under flow, 48 h drug treatment, day 7, broad-field electrical stimulation, DOX 5 μM, ATR 100 μM, VPA 2 mM, APAP 5 mM, AMAP 5 mM", "description": "Myotube contraction in coverslips was evaluated after the co-culture was finalized. Individual surfaces were evaluated as previously reported in the group. Drugs effects were quantify in a binary code mode, cells were or were not contracting."}, "Muscle": {"test_system": "Muscle", "parameters": "method as in Literature", "conditions": "general toxic effects reported in the literature; ref Literature; cited from earlier work"}, "liver [6]": {"test_system": "liver", "conditions": "patients undergoing DOX treatment; cited from earlier work"}, "neurons [7]": {"test_system": "neurons", "assay": "Neuron electrophysiology recording (patch clamp)", "assay_type": "cell-based, human", "conditions": "4-organ co-culture under flow, 48 h drug treatment, day 7, vs control, DOX 5 μM, ATR 100 μM", "text": "Electrophysiological properties of neuron cultures where recorded on the last day of co-culture following a previously described method. Values of firing, repetitive firing, spontaneous firing, inward sodium current, outward potassium current, action potential peak voltage and the resting membrane potential, characterized the mature functionality of neurons in the in vitro system. Drug alterations of the neuronal electrophysiology are discussed in this manuscript."}, "HepG2/C3A [8]": {"test_system": "HepG2/C3A", "assay": "MTT viability of liver module in 4-organ system", "assay_type": "cell-based, human", "conditions": "4-organ co-culture under flow, serum-free medium, 48 h drug treatment, day 7, vs control, DOX 5 μM, ATR 100 μM, VPA 2 mM, APAP 5 mM, AMAP 5 mM", "quoted_text": "as §1, §2"}, "Neurons [9]": {"test_system": "Neurons", "parameters": "method as in Literature", "conditions": "general toxic effects reported in the literature; ref Literature; cited from earlier work"}, "[10]": {"conditions": "cited from earlier work"}, "Liver [11]": {"test_system": "Liver", "parameters": "method as in Literature", "conditions": "general toxic effects reported in the literature; ref Literature; cited from earlier work"}, "[12]": {"test_system": "iPSc differentiated Cardiomyocytes", "assay": "MTT viability of cardiac module in 4-organ system", "conditions": "4-organ co-culture under flow, serum-free medium, 48 h drug treatment, day 7, vs control, DOX 5 μM, ATR 100 μM, VPA 2 mM, APAP 5 mM, AMAP 5 mM", "quoted_text": "as §1, §2"}, "Cardiomyocytes": {"test_system": "Cardiomyocytes", "parameters": "method as in Literature", "conditions": "general toxic effects reported in the literature; ref Literature; cited from earlier work"}, "[13]": {"test_system": "iPSc differentiated Cardiomyocytes", "assay": "Cardiac beating frequency from video recordings", "assay_type": "cell-based, human", "conditions": "4-organ co-culture under flow, 48 h drug treatment, day 7, vs control, DOX 5 μM, AMAP 5 mM", "description": "Seven or fourteen days after the co-culture, cardiac beating frequency was quantified from video recordings of three different areas of each of the cMEA surfaces, where the cardiomyocytes culture where located. Surfaces were located in a 37 °C bath platform containing co-culture medium with 50 mM HEPES on the stage of a Zeiss Axioscope 2FS upright microscope. Beats were counted in a period of 10 s, and the average number of 3 values was obtained. Drug effect was plotted as percentage of change compared to the control conditions."}, "skeletal muscle cells": {"test_system": "skeletal muscle cells", "assay": "Bright-field imaging of skeletal muscle morphology in 4-organ system", "assay_type": "cell-based, human", "conditions": "4-organ co-culture under flow, DOX 5 μM, 48 h", "text": "Cell morphology and function were studied each day with an inverted bright-field microscope (Carl Zeiss) using a 10X objective. This working distance allowed the imaging of the cells in the specific surfaces inside the housing. Images of each fraction and systems were collected with an Axio Cam and AxioVision AC software to study morphological or functional changes in the co-culture chamber for each organ."}}, "note": "Where “and” joins values, the source holds several entries; their conditions need not be identical. Equal values may be shown once."}
{"smiles": "COc1cccc2c1C(=O)c1c(O)c3c(c(O)c1C2=O)C[C@@](O)(C(=O)CO)C[C@@H]3O[C@H]1C[C@H](N)[C@H](O)[C@H](C)O1", "note": "[Doxorubicin]", "values": [{"measurement": "Urea production, increase", "setting": "HepG2/C3A [1]", "result": "HSA and Urea not affected( ^*)"}, {"measurement": "Urea production, increase", "setting": "HepG2/C3A [1]; listed as DOX", "result": "No effects"}, {"measurement": "Neuronal cell viability, loss (cell loss by morphology/cell count)", "setting": "neurons [2]", "result": "33 ± 13% loss of cell viability"}, {"measurement": "Neuronal cell viability, loss (cell loss by morphology/cell count)", "setting": "neurons [2]; listed as DOX", "result": "33 ± 18% and 33 ± 13%"}, {"measurement": "cytotoxicity", "setting": "neuron", "result": 25, "unit": "%"}, {"measurement": "HSA (albumin) production, increase", "setting": "HepG2/C3A [3]", "result": "HSA and Urea not affected( ^*)"}, {"measurement": "HSA (albumin) production, increase", "setting": "HepG2/C3A [3]; listed as DOX", "result": "No effects"}, {"measurement": "Skeletal muscle viability, loss", "setting": "Human Skeletal Myofibers [4]", "result": "Toxicity not observed"}, {"measurement": "Skeletal muscle loss of contractile ability (share of cultures in which contraction ceased)", "setting": "Human Skeletal Myofibers [5]", "result": "60% loss of contractile ability"}, {"measurement": "Skeletal muscle loss of contractile ability (share of cultures in which contraction ceased)", "setting": "Human Skeletal Myofibers [5]; listed as DOX", "result": 60, "unit": "%"}, {"measurement": "Drug effects on cell functionality, Muscle, Literature", "setting": "Muscle", "result": "Toxicity at higher concentrations"}, {"measurement": "Drug effects on cell viability, Muscle, Literature", "setting": "Muscle", "result": "Toxicity at higher concentrations"}, {"measurement": "Patients undergoing treatment that show hepatotoxicity", "setting": "liver [6]", "result": 40, "unit": "%"}, {"measurement": "Neuronal action potential peak voltage and resting membrane potential (DOX also peak ionic currents)", "setting": "neurons [7]", "result": "not significantly different"}, {"measurement": "Neuronal ion currents and firing of stimulated action potentials", "setting": "neurons [7]; APAP 5 mM", "result": "no changes"}, {"measurement": "Neuronal repetitive and spontaneous firing ability", "setting": "neurons [7]; APAP 5 mM, AMAP 5 mM, listed as DOX", "result": "not observed after treatment"}, {"measurement": "Neuronal electrophysiology, overall effect", "setting": "neurons [7]; VPA 2 mM, APAP 5 mM, AMAP 5 mM", "result": "Electrophysiology affected"}, {"measurement": "Liver (hepatocyte) cell viability, loss", "setting": "HepG2/C3A [8]", "result": "49 ± 10", "unit": "% loss"}, {"measurement": "Liver (hepatocyte) cell viability, loss", "setting": "HepG2/C3A [8]; listed as DOX", "result": "49 ± 10", "unit": "%"}, {"measurement": "Drug effects on cell functionality, Neurons, Literature", "setting": "Neurons [9]", "result": "Neurologic disturbances ( ^**)"}, {"measurement": "Drug effects on cell viability, Neurons, Literature", "setting": "Neurons [9]", "result": "Neurologic disturbances ( ^**)"}, {"measurement": "Patient plasma concentrations typically detected", "setting": "[10]; patients", "result": "0.5 to 1", "unit": "µM"}, {"measurement": "Concentration in mitochondria relative to plasma levels", "setting": "[10]; typically", "result": 100, "unit": "times"}, {"measurement": "Drug effects on cell functionality, Liver, Literature", "setting": "Liver [11]", "result": "May be compromised"}, {"measurement": "Drug effects on cell viability, Liver, Literature", "setting": "Liver [11]", "result": "Toxicity reported"}, {"measurement": "Cardiomyocyte viability, loss", "setting": "[12]", "result": "65 ± 6", "unit": "% loss"}, {"measurement": "Cardiomyocyte viability, loss", "setting": "[12]; listed as DOX", "result": "65 ± 6", "unit": "%"}, {"measurement": "Drug effects on cell functionality, Cardiomyocytes, Literature", "setting": "Cardiomyocytes", "result": "Compromised"}, {"measurement": "Drug effects on cell viability, Cardiomyocytes, Literature", "setting": "Cardiomyocytes", "result": "Toxicity reported"}, {"measurement": "Cardiomyocyte beating rate (beat frequency), decrease", "setting": "[13]", "result": "47 ± 9% decrease in beating rate"}, {"measurement": "Cardiomyocyte beating rate (beat frequency), decrease", "setting": "[13]; listed as DOX", "result": "47 ± 9", "unit": "%"}, {"measurement": "Muscle morphology", "setting": "skeletal muscle cells", "result": "not affected"}]}
